From patent US7932420B2, “Sulfonamides” (Allergan, Inc., priority 2005, dated 2011) come the findings set out here.

Assay [1] has as its target T1, hEP2 (Homo sapiens, UniProt P43116). As to the kind of experiment: in-vitro activity at prostaglandin receptor (fhEP2). As to conditions: functional, human EP2. Type of assay: cell-based.
The target of assay [2] is hEP4 (Homo sapiens, UniProt P35408). As to the kind of experiment: in-vitro binding to prostaglandin receptor (bhEP4). As to conditions: human EP4.
The subject of assay [3] is EP2 and EP4 receptors as compared to the FP, EP1, TP, IP and DP receptors. Put plainly: in-vitro assay for binding to and activity at prostaglandin receptors (selectivity).
Assay [4] has as its target T1, hEP2. As to the kind of experiment: in-vitro binding to prostaglandin receptor (bhEP2). Conditions: human EP2.

T1 sequence (P43116 whole entry): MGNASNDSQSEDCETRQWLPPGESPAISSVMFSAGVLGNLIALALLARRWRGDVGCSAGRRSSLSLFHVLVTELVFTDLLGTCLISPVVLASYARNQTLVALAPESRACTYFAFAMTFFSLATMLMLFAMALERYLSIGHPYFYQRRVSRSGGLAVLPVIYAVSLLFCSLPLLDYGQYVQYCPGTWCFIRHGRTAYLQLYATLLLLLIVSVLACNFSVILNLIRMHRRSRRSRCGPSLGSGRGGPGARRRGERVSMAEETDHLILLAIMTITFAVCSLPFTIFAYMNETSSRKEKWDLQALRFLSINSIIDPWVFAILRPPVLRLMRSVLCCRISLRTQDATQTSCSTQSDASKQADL
Chain of hEP4 (P35408 whole entry): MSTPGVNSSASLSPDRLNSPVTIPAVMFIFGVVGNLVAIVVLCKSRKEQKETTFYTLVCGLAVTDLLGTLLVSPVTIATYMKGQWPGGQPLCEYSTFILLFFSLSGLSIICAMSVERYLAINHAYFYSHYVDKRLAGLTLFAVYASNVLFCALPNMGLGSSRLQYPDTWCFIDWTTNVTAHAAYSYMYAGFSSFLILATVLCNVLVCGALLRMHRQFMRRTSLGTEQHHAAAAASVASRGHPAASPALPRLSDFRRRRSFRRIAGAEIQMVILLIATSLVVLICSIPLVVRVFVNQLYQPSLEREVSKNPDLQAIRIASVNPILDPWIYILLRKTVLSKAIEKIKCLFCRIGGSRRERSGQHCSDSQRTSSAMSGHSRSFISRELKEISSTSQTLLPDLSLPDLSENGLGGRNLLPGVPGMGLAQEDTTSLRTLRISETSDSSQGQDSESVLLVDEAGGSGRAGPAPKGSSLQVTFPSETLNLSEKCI

In assay [1], `CCCC1(C(O)C/C=C/CN(CCCCCCC(=O)O)S(C)(=O)=O)CCC1` (stereo not shown) [Example 10, 7-[[5-Hydroxy-5-(1-propylcyclobutyl)pent-2-enyl]methanesulfonylamino]heptanoic acid] returned a fhEP2 of 248. The bhEP4 in assay [2] turned out to be 50K. In assay [3], the “selectivity among prostaglandin receptors” value was “selective at the EP2 and EP4 receptors”. This compound displayed a bhEP2 in assay [4] of 5560.
